Results reported in patent US9556121B2, “Pyridyloxyalkyl carboxamides and use thereof as endoparasiticides and nematicides” (BAYER CROPSCIENCE AG, priority 2012, dated 2017).

Experiments:
Type in all cases: in vivo
[1] = test system: Cooperia curticei; test: Cooperia curticei test (COOPCU), larval kill; conditions: for effect (kill in %): after 5 days, about 40 nematode larvae; for inhibition at 20 ppm: Cooperia curticei, 120 h, COOPCU, 5 dat
Protocol: Cooperia curticei Test (COOPCU)
(§1) Solvent: dimethyl sulphoxide
(§2) To produce a suitable preparation of active compound, 10 mg of active compound are mixed with 0.5 ml of dimethyl sulphoxide, and the concentrate is diluted with Ringer solution to the desired concentration.
Vessels containing the active compound preparation of the desired concentration are populated with about 40 nematode larvae (Cooperia curticei).
(§3) After 5 days, the kill in % is determined. 100% means that all of the larvae have been killed; 0% means that none of the larvae have been killed.

[2] = test system: Haemonchus contortus; test: Haemonchus contortus test (HAEMCO), larval kill; conditions: for effect (kill in %): application rate 20 ppm, after 5 days, about 40 larvae
Protocol: Haemonchus contortus Test (HAEMCO)
as §1, §2
Vessels containing the active compound preparation of the desired concentration are populated with about 40 larvae of the red stomach worm (Haemonchus contortus).
as §3

[3] = test system: Meloidogyne incognita; test: Meloidogyne incognita test (MELGIN), gall formation on lettuce; conditions: application rate 20 ppm, after 14 days, sand, egg/larvae suspension
Protocol: Meloidogyne incognita Test (MELGIN)
Solvent: 125.0 parts by weight of acetone
To prepare a suitable active compound preparation, 1 part by weight of active compound is mixed with the stated amount of solvent and the concentrate is diluted with water to the desired concentration.
Vessels are filled with sand, active compound solution, an egg/larvae suspension of the root-knot nematode (Meloidogyne incognita) and lettuce seeds. The lettuce seeds germinate and the plants develop. On the roots, galls are formed.
After 14 days, the nematicidal effect in % is determined by the formation of galls. 100% means that no galls have been found; 0% means that the number of galls on the treated plants corresponds to the untreated control.

| SMILES | effect (kill in %) ([1]; application rate 20 ppm) [%] | effect (kill in %) [2] [%] | further results |
| --- | --- | --- | --- |
| O=C(NCCOc1ccc(C(F)(F)F)cn1)c1sccc1I [1-48] | 80 |  |  |
| Cc1ccccc1C(=O)NCCOc1ncc(C(F)(F)F)cc1Cl [1-29] | 80 | 80 |  |
| COc1ncccc1C(=O)NCCOc1ncc(C(F)(F)F)cc1Cl [1-155] | 80 | 100 |  |
| CC(CNC(=O)c1ccccc1C(F)(F)F)Oc1ncc(C(F)(F)F)cc1Cl (centres unmarked) [1-25] | 90 | 100 |  |
| O=C(NC1(COc2ncc(C(F)(F)F)cc2Cl)CC1)c1ccccc1C(F)(F)F [1-169] | 80 | 80 |  |
| O=C(NCCOc1ccc(C(F)(F)F)cn1)c1ccccc1I [1-44] |  | 100 |  |
| CC(C)(COc1ncc(Cl)cc1Cl)NC(=O)c1ccccc1C(F)(F)F [1-82] | 90 | 90 |  |
| O=C(NCCOc1ccc(Cl)cn1)c1c(F)cccc1F [1-35] |  | 80 | effect (kill in %) ([1]; application rate 100 ppm): 80% |
| O=C(NC1(COc2ccc(C(F)(F)F)cn2)CC1)c1c(F)cccc1F [1-168] | 100 | 90 |  |
| O=C(NCCOc1ncc(Cl)cc1Cl)c1c(F)cccc1F [1-19] |  | 90 |  |
| O=C(NCCOc1ccc(Cl)cn1)c1ccccc1Br [1-33] |  | 80 |  |
| O=C(NCCOc1ncc(Cl)cc1Cl)c1ccccc1I [1-18] |  | 100 | nematicidal effect in % (formation of galls) [3]: 80% |
| O=C(NC1(COc2ncc(C(F)(F)F)cc2Cl)CC1)c1ccccc1I [1-170] | 100 | 100 | nematicidal effect in % (formation of galls) [3]: 100% |
| O=C(NCCOc1ccc(C(F)(F)F)cn1)c1ccccc1Br [1-43] |  | 90 |  |
| O=C(NCCOc1ncc(C(F)(F)F)cc1Cl)c1ccccc1Cl [1-26] | 80 | 100 |  |
| O=C(NCCOc1ncc(F)cc1F)c1ccccc1C(F)(F)F [1-134] |  |  | nematicidal effect in % (formation of galls) [3]: 90% |
| CC(COc1ncc(C(F)(F)F)cc1Cl)NC(=O)c1cn(C)nc1C(F)F (centres unmarked) [1.239, reference compound] |  |  | inhibition at 20 ppm [1]: 0%; inhibition at 20 ppm ([2]; Haemonchus contortus, 120 h, HAEMCO, 20 ppm, 5 dat): 0% |
| O=C(NCCOc1ccc(Cl)cn1)c1ccccc1C(F)(F)F [1-36] |  | 80 | effect (kill in %) ([1]; application rate 100 ppm): 90% |
| O=C(NCCOc1ncc(C(F)(F)F)cc1Cl)c1ccccc1C(F)F [1-2] |  | 100 |  |
| O=C(NC1(COc2ncc(C(F)(F)F)cc2Cl)CC1)c1c(F)cccc1F [1-167] |  | 80 |  |
| O=C(NCCOc1ccc(C(F)(F)F)cn1)c1ccccc1C(F)(F)F [1-46] |  | 100 |  |
| N#Cc1cnc(OCCNC(=O)c2ccccc2C(F)(F)F)c(F)c1 [1-164] | 90 | 90 | nematicidal effect in % (formation of galls) [3]: 100% |
| CC(COc1ccc(Cl)cc1Cl)NC(=O)c1ccccc1C(F)(F)F (centres unmarked) [4-2, reference compound] |  |  | inhibition at 20 ppm [1]: 0% |
| O=C(NCCOc1ncc(C(F)(F)F)cc1Cl)c1ccccc1I [1-28] | 100 | 100 |  |
| O=C(NC1(COc2ccc(C(F)(F)F)cn2)CC1)c1cccnc1Cl [1-177] |  |  | nematicidal effect in % (formation of galls) [3]: 90% |
